# Measured values: patent publication US11964949B2, “Substituted phenyloxazolidinones for antimicrobial therapy” (priority 2015, dated 2024)
# Like-named read-outs stand apart in the source and are kept apart here.
# Columns and labels:
# [1] = system: mitochondrial protein synthesis (MPS) in H9C2 cells; assay: In vitro assay for MPS inhibition (COX-1 / SDH-A ELISA in H9C2 cells); assay type: cell-based, rat; conditions: Rattus norvegicus, read-out: IC50 (μM) MPS inhibition
# [2] = system: Mycobacterium tuberculosis H37Rv; assay: In vitro assay for antimicrobial susceptibility (microplate Alamar blue, MIC); assay type: cell-based; conditions: Mycobacterium tuberculosis, read-out: MIC (μg/mL) against H37Rv
# [3] = 120 h, H9C2 cells, 5 days incubation
# [4] = M. tuberculosis H37Rv, 7H9 broth, Alamar blue
Structure (SMILES),"IC50 ([1]; H9c2, 120 h) [µM]",MIC ([2]; H37RV) [µg/mL],"IC50 [1, 3] [µM]","MIC [2, 4] [µg/mL]"
"CCCC(=O)NC[C@H]1CN(c2ccc(N3[C@@H]4CC[C@H]3C[S+]([O-])C4)c(F)c2)C(=O)O1 (stereo partly drawn) [OBD-017, N-(((5S)-3-(3-Fluoro-4-((1R,5S)-3-oxido-3-thia-8-azabicyclo[3.2.1]octan-8-yl)phenyl)-2-oxooxazolidin-5-yl)methyl)butyramide]",41,5.8 to 6.3,,
"CCCC(=O)NC[C@H]1CN(c2cc(F)c(N3C4CCC3CSC4)c(F)c2)C(=O)O1 [OBD-029, N—(((S)-3-(4-(3-thia-8-aza-bicyclo[3.2.1]octan-8-yl)-3,5-difluorophenyl)-2-oxooxazolidin-5-yl)methyl)butyramide]",> 100,0.11,,
CC(=O)NC[C@H]1CN(c2cc(F)c(N3CC4CCC(C3)O4)c(F)c2)C(=O)O1 [OBD-048],,,5,0.39
CC(=O)NC[C@H]1CN(c2cc(F)c(N3C4CCC3COC4)c(F)c2)C(=O)O1 [OBD-051],6,0.6,,
COC(=O)NC[C@H]1CN(c2cc(F)c(N3C4CCC3COC4)c(F)c2)C(=O)O1 [OBD-052],13,0.95,,
"O=C1OC(Cn2ccnn2)CN1c1cc(F)c(N2CC3CCC(C2)O3)c(F)c1 (stereo not shown) [OBD-054, 5-((1H-1,2,3-triazol-1-yl)methyl)-3-(4-(8-oxa-3-aza-bicyclo[3.2.1]octan-3-yl)-3,5-difluorophenyl)oxazolidin-2-one]",,,6 to 31,0.5
"O=C1O[C@@H](Cn2ccnn2)CN1c1cc(F)c(N2C3CCC2COC3)c(F)c1 [OBD-055, (5R)-5-((1H-1,2,3-triazol-1-yl)methyl)-3-(4-(3-oxa-8-aza-bicyclo[3.2.1]octan-8-yl)-3,5-difluorophenyl)oxazolidin-2-one]",15,1.3,,
O=C1O[C@@H](CNc2ccon2)CN1c1ccc(N2CC3(COC3)C2)c(F)c1 [OBD-056],,,17,1.9
NC[C@H]1CN(c2ccc(N3CC4(COC4)C3)c(F)c2)C(=O)O1 [OBD-057],,,67,0.4
O=C1O[C@@H](CNc2ccon2)CN1c1cc(F)c(N2CC3(COC3)C2)c(F)c1 [OBD-061],,,29,0.8
"NC[C@H]1CN(c2ccc(N3C4CCC3CSC4)c(F)c2)C(=O)O1 [OBD-081, (5S)-3-(4-(3-thia-8-aza-bicyclo[3.2.1]octan-8-yl)-3-fluorophenyl)-5-(aminomethyl)oxazolidin-2-one]",77,0.47,,
"NC[C@H]1CN(c2cc(F)c(N3C4CCC3CSC4)c(F)c2)C(=O)O1 [OBD-083, (5S)-3-(4-(3-thia-8-aza-bicyclo[3.2.1]octan-8-yl)-3,5-difluorophenyl)-5-(aminomethyl)oxazolidin-2-one]",20,0.05,,
NC[C@H]1CN(c2ccc(N3C4CCC3C[S+]([O-])C4)c(F)c2)C(=O)O1 (stereo partly shown) [OBD-085],> 100,1.1,,
NC[C@H]1CN(c2cc(F)c(N3C4CCC3C[S+]([O-])C4)c(F)c2)C(=O)O1 (stereo partly shown) [OBD-087],> 100,0.86,,
CC(=O)NC[C@H]1CN(c2ccc(N3CC4CCC(C3)O4)c(F)c2)C(=O)O1 [OBD-110],,,7,0.45
COC(=O)NC[C@H]1CN(c2ccc(N3CC4CCC(C3)O4)c(F)c2)C(=O)O1 [OBD-111],,,7,0.49
"O=C1O[C@@H](CO)CN1c1ccc(N2CC3CCC(C2)O3)c(F)c1 [OBD-112, 3-(4-(8-oxa-3-aza-bicyclo[3.2.1]octan-3-yl)-3-fluorophenyl)-5-(hydroxymethyl)oxazolidin-2-one]",,,> 100,3.5
"NC[C@H]1CN(c2ccc(N3CC4CCC(C3)O4)c(F)c2)C(=O)O1 [OBD-113, 3-(4-(8-oxa-3-aza-bicyclo[3.2.1]octan-3-yl)-3-fluorophenyl)-5-(aminomethyl)oxazolidin-2-one]",,,> 100,0.39
"O=C1O[C@@H](CO)CN1c1cc(F)c(N2CC3CCC(C2)O3)c(F)c1 [OBD-114, 3-(4-(8-oxa-3-aza-bicyclo[3.2.1]octan-3-yl)-3,5-difluorophenyl)-5-(hydroxymethyl)oxazolidin-2-one]",,,> 100,1.7
CCCC(=O)NC[C@H]1CN(c2cc(F)c(N3C4CCC3C[S+]([O-])C4)c(F)c2)C(=O)O1 (stereo partly shown) [OBD-242],> 100,0.61,,
O=C(NC[C@H]1CN(c2cc(F)c(N3CC4CCC(C3)O4)c(F)c2)C(=O)O1)C1CC1 [OBD-252],,,32.3,0.47

Structure (SMILES),"IC50 ([1]; H9c2, 120 h) [µM]",MIC ([2]; H37RV) [µg/mL],"IC50 [1, 3] [µM]","MIC [2, 4] [µg/mL]"
O=C(NC[C@H]1CN(c2cc(F)c(N3CC4CCC(C3)O4)c(F)c2)C(=O)O1)C1CCC1 [OBD-253],,,65,0.53
CCCC(=O)NC[C@H]1CN(c2cc(F)c(N3CC4CCC(C3)O4)c(F)c2)C(=O)O1 [OBD-254],,,36,0.73
"O=C1O[C@@H](Cn2nccn2)CN1c1ccc(N2CCCSCC2)c(F)c1 [OTB-106, (R)-5-[(2H-1,2,3-Triazol-2-yl)methyl]-3-[3-fluoro-4-(1,4-thiazepan-4-yl)phenyl]oxazolidin-2-one]",,,> 100,2
"O=C1O[C@@H](Cn2ccnn2)CN1c1ccc(N2CCCSCC2)c(F)c1 [OTB-107, (R)-5-[(1H-1,2,3-Triazol-1-yl)methyl]-3-[3-fluoro-4-(1,4-thiazepan-4-yl)phenyl]oxazolidin-2-one]",,,84.9,0.03
"CCCC(=O)OC[C@H]1CN(c2ccc(N3CCCSCC3)c(F)c2)C(=O)O1 [OTB-108, (R)-[3-[3-Fluoro-4-(1,4-thiazepan-4-yl)phenyl]-2-oxo-5-oxazolidinyl]methyl butyrate]",,,> 100,0.125
"CCCC(=O)OC[C@H]1CN(c2ccc(N3CCCSCCC3)c(F)c2)C(=O)O1 [OTB-110, (R)-[3-[3-Fluoro-4-(1,5-thiazocan-5-yl)phenyl]-2-oxo-5-oxazolidinyl]methyl butyrate]",,,> 100,0.125
"O=C(NC[C@H]1CN(c2ccc(N3CCCSCC3)c(F)c2)C(=O)O1)c1ccco1 [OTB-111, (S)—N-[(3-[3-Fluoro-4-(1,4-thiazepan-4-yl)phenyl]-2-oxo-oxazolidin-5-yl)methyl]furan-2-carboxamide]",,,60.3,0.125
"O=C(NC[C@H]1CN(c2ccc(N3CCCSCC3)c(F)c2)C(=O)O1)c1cccs1 [OTB-112, (S)—N-[(3-[3-Fluoro-4-(1,4-thiazepan-4-yl)phenyl]-2-oxo-oxazolidin-5-yl)methyl]thiophene-2-carboxamide]",,,> 100,0.5
"O=C1O[C@@H](Cn2nccn2)CN1c1ccc(N2CCCSCCC2)c(F)c1 [OTB-113, (R)-5-[(2H-1,2,3-triazol-2-yl)methyl]-3-[3-fluoro-4-(1,5-thiazocan-5-yl)phenyl]oxazolidin-2-one]",,,> 100,2
"CC(=O)NC[C@H]1CN(c2ccc(N3CCCSCCC3)c(F)c2)C(=O)O1 [OTB-114, (S)—N-((3-(3-fluoro-4-(1,5-thiazocan-5-yl)phenyl)-2-oxooxazolidin-5-yl)methyl)acetamide]",,,28 to 29,0.05 to 0.11
"CC(C)(C)C(=O)NC[C@H]1CN(c2ccc(N3CCCSCC3)c(F)c2)C(=O)O1 [OTB-115, (S)—N-[[3-(3-Fluoro-4-(1,4-thiazepan-4-yl)phenyl)-2-oxo-oxazolidin-5-yl]methyl]pivalamide]",,,> 100,3.73
"CCCCS(=O)(=O)NC[C@H]1CN(c2ccc(N3CCCSCC3)c(F)c2)C(=O)O1 [OTB-116, (R)—N-[[3-(3-Fluoro-4-(1,4-thiazepan-4-yl)phenyl)-2-oxo-oxazolidin-5-yl]methyl]butane-1-sulfonamide]",,,> 100,3.81
"O=C(NC[C@H]1CN(c2ccc(N3CCCSCCC3)c(F)c2)C(=O)O1)c1ccco1 [OTB-117, (S)—N-[[3-(3-Fluoro-4-(1,5-thiazocan-5-yl)phenyl)-2-oxo-oxazolidin-5-yl]methyl]furan-2-carboxamide]",,,56.3,0.665
"O=C1O[C@@H](Cn2cncn2)CN1c1ccc(N2CCCSCC2)c(F)c1 [OTB-119, (R)-5-[(1H-1,2,4-Triazol-1-yl)methyl]-3-[3-fluoro-4-(1,4-thiazepan-4-yl)phenyl]oxazolidin-2-one]",,,> 100,0.456
"CCCCS(=O)(=O)NC[C@H]1CN(c2ccc(N3CCCSCCC3)c(F)c2)C(=O)O1 [OTB-120, (R)—N-[[3-(3-Fluoro-4-(1,5-thiazocan-5-yl)phenyl)-2-oxo-oxazolidin-5-yl]methyl]butane-1-sulfonamide]",,,7.27,3.88
"CC(C)(C)C(=O)NC[C@H]1CN(c2ccc(N3CCCSCCC3)c(F)c2)C(=O)O1 [OTB-121, (S)—N-[[3-(3-Fluoro-4-(1,5-thiazocan-5-yl)phenyl)-2-oxo-oxazolidin-5-yl]methyl]pivalamide]",,,17.6,2.79
"CCCC(=O)OC[C@H]1CN(c2ccc(N3CCC[S+]([O-])CC3)c(F)c2)C(=O)O1 (stereo partly drawn) [OTB-126, [(5R)-3-[3-Fluoro-4-(1-oxido-1,4-thiazepan-4-yl)phenyl)-2-oxo-oxazolidin-5-yl]methyl butyrate]",,,35.6,0.847
"O=C(NC[C@H]1CN(c2ccc(N3CCC[S+]([O-])CC3)c(F)c2)C(=O)O1)c1ccco1 (stereo partly drawn) [OTB-127, N-[[(5S)-3-(3-Fluoro-4-(1-oxido-1,4-thiazepan-4-yl)phenyl)-2-oxo-oxazolidin-5-yl]methyl]furan-2-carboxamide]",,,10.2,1.23
"O=C1O[C@@H](Cn2ccnn2)CN1c1ccc(N2CCC[S+]([O-])CC2)c(F)c1 (stereo partly drawn) [OTB-137, (5R)-5-((1H-1,2,3-Triazol-1-yl)methyl)-3-(3-fluoro-4-(1-oxido-1,4-thiazepan-4-yl)phenyl)oxazolidin-2-one]",,,7.64,0.277
"O=C1O[C@@H](Cn2nccn2)CN1c1ccc(N2CCC[S+]([O-])CC2)c(F)c1 (stereo partly drawn) [OTB-138, (5R)-5-((2H-1,2,3-Triazol-2-yl)methyl)-3-(3-fluoro-4-(1-oxido-1,4-thiazepan-4-yl)phenyl)oxazolidin-2-one]",,,> 100,7.57
